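In this assay, cells in 96-well plates receive the compound at five concentrations for 48 hours. Endpoints are linearly interpolated between the surrounding concentrations. TGI denotes the concentration required for complete inhibition of growth.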
Tests used:
Assay in all cases: growth of human tumour cells (NCI), 48 h
MALME-3M melanoma = tested on: MALME-3M melanoma
MDA-MB-435 = tested on: MDA-MB-435
MDA-N = tested on: MDA-N
SK-MEL-28 melanoma = tested on: SK-MEL-28 melanoma
SK-OV-3 ovarian = tested on: SK-OV-3 ovarian
SNB-19 CNS = tested on: SNB-19 CNS
SNB-75 CNS = tested on: SNB-75 CNS
U251 CNS = tested on: U251 CNS
UACC-257 melanoma = tested on: UACC-257 melanoma
HL-60(TB) leukemia = tested on: HL-60(TB) leukemia

Row | Structure (SMILES) | TGI (MALME-3M melanoma) [µM] | TGI (MDA-MB-435) [µM] | TGI (MDA-N) [µM] | TGI (SK-MEL-28 melanoma) [µM] | TGI (SK-OV-3 ovarian) [µM] | TGI (SNB-19 CNS) [µM] | TGI (SNB-75 CNS) [µM] | TGI (U251 CNS) [µM] | TGI (UACC-257 melanoma) [µM] | TGI (HL-60(TB) leukemia) [µM]
1 | COc1ccc(-c2cc(=O)c3cc(OC)c(OC)cc3[nH]2)cc1OC | > 100 | > 100 | > 100 | > 100 | > 100 | > 100 | > 100 | > 100 | > 100 | 
2 | CC(=O)OC/C=C/Cn1nc(Br)c(=O)[nH]c1=O | > 100 | > 100 | > 100 | > 100 |  | > 100 | > 100 | > 100 | > 100 | > 100
3 | Nc1cc(O)c2cc(N=Nc3ccc(N=Nc4ccc(N=Nc5ccc6cc(S(=O)(=O)O)cc(S(=O)(=O)O)c6c5)c5ccccc45)c4cc(S(=O)(=O)O)ccc34)c(S(=O)(=O)O)cc2c1 | > 100 |  |  | > 100 | > 100 | > 100 | > 100 | > 100 | > 100 | > 100
4 | CC(=O)Oc1cc(OC(C)=O)c2c(c1C)CC[C@@H]1[C@@H]2CC[C@]2(C)[C@@H](OC(C)=O)CC[C@@H]12 | 29.2 | 31.3 | 32.9 | 33 |  | 33.3 | 44 | 31.9 | 32 | 54.6
5 | CC(C)(C)OC(=O)NCCCCC1NC(=O)[C@@H]2Cc3c([nH]c4ccccc34)C(c3ccccc3)N2C1=O (stereo partly drawn) | > 100 | > 100 | > 100 | > 100 | > 100 | > 100 |  | > 100 | > 100 | 52.3
6 | COc1cc(O)c2c(=O)c(O)c(-c3ccc(O)c(O)c3)oc2c1 | 69.3 | 85.5 | > 100 | > 100 | 56.9 | > 100 |  | 24.7 | 46.1 | 12.8
7 | CC(C)[C@H](NC(=O)OCc1ccccc1)C(=O)N[C@H](/C=C/C(=O)OC(C)(C)C)CO | > 100 | > 100 | > 100 | > 100 | > 100 | > 100 |  |  | > 100 | > 100
8 | O=C(c1ccccc1)n1c2ccc(Br)cc2c2nc3ccccc3nc21 | > 100 | > 100 | > 100 | > 100 |  | > 100 | > 100 | > 100 | > 100 | > 100
9 | N#Cc1c2c(c(Nc3ccc(Cl)cc3)n3c1nc1ccccc13)CCCC2 | > 100 | > 100 |  | > 100 | > 100 | > 64.2 | > 100 | > 65.4 | > 100 | > 100
10 | CCOC(=O)c1sc2nc(SC)nc3c2c1NCN3c1ccccc1Cl | 74.4 | > 100 | > 100 | > 100 | > 100 | > 100 | 64.9 | > 100 | > 100 | 
11 | CNC(=O)N(C)C(=O)c1ccccc1C(=O)N(C)C(=O)NC | > 10 |  | > 10 | > 10 | > 10 | > 10 | > 10 | > 10 | > 10 | > 10
12 | O=CC12CCCN1CCC2 | > 100 | > 100 | > 100 | > 100 | > 100 | > 100 |  | > 100 | > 100 | 
13 | C(/Cc1ccc2c(c1)OCO2)=N\NC1=NCCCCN1 | > 100 | > 100 |  | > 100 | > 100 | > 100 | > 100 | > 100 | > 100 | > 100
14 | Cn1c(=O)c2c(n(C)c1=O)n1c(=O)c3ccccc3nc1n2C |  | > 100 |  | > 100 | > 100 | > 100 | > 100 | > 100 | > 100 | 
15 | CCCCCNC(=O)OC1CCn2c1nc1c2C(=O)C(C)=C(N2CC2)C1=O (stereo not drawn) | 4.27 | 3.13 | 2.88 | 2.78 |  | 11.5 | 2.69 | 4.7 | 3.22 | > 100
16 | Nc1nc2c(ccc3ccccc32)[nH]1 | > 10 | > 10 | > 10 | > 10 | > 10 | > 10 | > 10 | > 10 |  | > 10
17 | CN(C)c1ccc(/C=C2\CCCCCC2=O)cc1 | > 100 | > 100 | > 100 | > 100 | > 100 | > 100 | > 100 |  | > 100 | > 100
18 | COc1ccc(NC(=S)Nc2cccc(C)n2)cc1 |  | > 100 |  | > 100 | > 100 | > 100 | > 100 | > 100 | > 100 | > 100
19 | CCc1n[nH]c(=O)n1-c1ccncc1 | > 100 | > 100 | > 100 | > 100 |  | > 100 | > 100 | > 100 | > 100 | > 100
20 | C/C(=C\CNc1ncnc2c1ncn2CCC#N)CO | > 100 | > 100 | > 100 | > 100 | > 100 | > 100 | > 100 |  | > 100 | > 100
21 | Nc1c(/C=C/c2cc3cc(C4=NCCN4)ccc3o2)[nH]c2cc(C3=NCCN3)ccc12 |  | > 100 | > 100 | 97.4 | > 100 | > 100 | > 100 | > 100 | > 100 | > 100
22 | Nn1c(=S)[nH]nc(/C=C/c2c(O)ccc3ccccc23)c1=O | 44.6 | > 100 | > 100 | 73.5 | 95.4 | > 100 |  | > 100 | 50.9 | 4.14
23 | CCCCC(C)(C/C=C/[C@@H]1[C@@H](C(O)CCCCCC(=O)OC)C(=O)C[C@H]1O[Si](C)(C)C(C)(C)C)O[Si](C)(C)C (stereo partly drawn) | > 100 | > 100 |  | > 100 | > 100 | > 100 | > 100 | > 100 | > 100 | 
24 | FC(F)(Sc1nc2ccccc2[nH]1)c1nc2ccccc2o1 | > 100 | > 100 | > 100 | > 100 | > 100 |  | > 100 | > 100 | > 100 | 
